The values below come from article PMC5242352 (Iranian Journal of Pharmaceutical Research : IJPR, 2016).

Each structure is given as a SMILES string. Values joined by “and” are separate entries in the source; they are usually repeats but may differ in a detail not shown here. Identical values can stand only once. Like-named read-outs stand apart in the source and are kept apart here.

What is called IC50 is the concentration that inhibits the measured activity by half.

The assay addresses Jack bean urease (Canavalia ensiformis, UniProt P07374). Put plainly: Urease inhibition assay. The format is biochemical.

Sequence of Jack bean urease (P07374 whole entry, looked up): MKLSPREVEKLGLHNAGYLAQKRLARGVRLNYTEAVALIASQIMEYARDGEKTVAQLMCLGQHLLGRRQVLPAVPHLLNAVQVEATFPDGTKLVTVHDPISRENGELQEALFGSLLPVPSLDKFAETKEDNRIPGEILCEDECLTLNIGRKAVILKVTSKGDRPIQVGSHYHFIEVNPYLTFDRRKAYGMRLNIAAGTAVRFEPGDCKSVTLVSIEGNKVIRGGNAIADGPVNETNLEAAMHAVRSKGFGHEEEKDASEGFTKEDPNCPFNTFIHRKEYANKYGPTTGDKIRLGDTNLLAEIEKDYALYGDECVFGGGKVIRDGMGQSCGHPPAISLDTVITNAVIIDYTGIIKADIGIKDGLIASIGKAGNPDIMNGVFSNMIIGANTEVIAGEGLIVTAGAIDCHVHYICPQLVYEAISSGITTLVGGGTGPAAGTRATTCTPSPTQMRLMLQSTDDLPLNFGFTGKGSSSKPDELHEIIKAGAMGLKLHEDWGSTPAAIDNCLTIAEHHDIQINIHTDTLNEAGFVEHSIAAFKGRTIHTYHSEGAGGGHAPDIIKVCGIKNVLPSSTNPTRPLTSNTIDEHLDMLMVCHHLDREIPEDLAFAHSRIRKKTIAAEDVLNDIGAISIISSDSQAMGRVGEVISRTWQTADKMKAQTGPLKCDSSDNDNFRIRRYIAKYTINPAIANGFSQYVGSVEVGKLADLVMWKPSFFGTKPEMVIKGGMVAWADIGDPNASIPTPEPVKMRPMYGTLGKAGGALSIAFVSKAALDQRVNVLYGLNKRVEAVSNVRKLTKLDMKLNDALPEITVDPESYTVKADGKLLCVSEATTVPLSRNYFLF

For `CC1(C)CC(=O)C2=C(C1)Nc1[nH]c(=O)[nH]c(=O)c1C21C(=O)Nc2ccccc21` (centres unmarked) [7a, 8',8'-Dimethyl-8',9'-dihydro-1'H-spiro [indoline-3,5'-pyrimido[4,5-b]quinoline]-2,2',4', 6'(3'H,7'H,10'H)-tetraone], the IC50 (IC50 (urease inhibitory activity), 37 °C, 30 minutes, read at 625 nm, triplicate) was 7.44 µM and 2.81 µM.

For `NC(=O)NO` [hydroxyurea, reference compound], the IC50 (read-out: IC50 (urease inhibitory activity), 37 °C, 30 minutes, read at 625 nm, triplicate) amounted to 100 µM.
